From patent publication US12180159B2, “Activators of the unfolded protein response” (The Board of Trustees of the University of Illinois, priority 2018, dated 2024) come the findings set out here.

Data set [1] deals with TYS-Luc (T47DERαY537S-Luc human breast cancer cells) orthotopic tumors. Nature of the data set: Orthotopic TYS-Luc mouse xenograft, bioluminescent imaging (BLI) of tumor flux. It counts as in vivo. The procedure:
In a treatment and vehicle-controlled mouse tumor study, human breast cancer cells were engineered to contain both the lethal ERαY537S mutation found in metastatic breast cancer, and the gene for firefly luciferase—when the appropriate chemical is added, the firefly luciferase breaks down the chemical and light is produced. Using a sensitive detector called an imaging system, this allows us to image the tumors inside live mice. This is called bioluminescent imaging, or BLI. Large tumors were allowed to form. Then (−)-105 was injected daily under the skin for three weeks. Using the imaging system, the effect of (−)-105 on the tumors was monitored. At the same time the effect of the vehicle in which (−)-105 was dissolved on tumors was also monitored.
A study was performed to determine what happens after stopping treatment with (−)-105 (Table 2). The study was designed to show whether the micro-tumors would remain dormant, or whether they would regrow. At the end of the three-week treatment, there is residual material that gives off a tiny amount of light which are termed “micro-tumors”. Based on sensitivity of the imaging system, it is believed these micro-tumors contain anywhere from 0-˜1,000 cancer cells; the micro-tumors will not be visible to the naked eye. Seeing them requires the powerful imaging system, or a microscope. To test whether these cells are either dead, or no longer dividing and are dormant, the cells two and 4 weeks after they stopped receiving any treatment were imaged. This study tested whether growing cancer cells have been eradicated; this study continues.
In a 3-week study, large breast tumors were present at start of treatment and regressed as shown in the image of FIG. 17. The study was performed using Orthotopic TYS-Luc (injected cells: T47DERα Y537-Luc human breast cancer cells), e.g., the most lethal ERα mutation in human in metastatic breast cancer. Tumors were grown in NSG mice. Further details are provided in the Examples.
Experimental Details of the Xenografts: TYS-Luc cells (5,000,000 cells in Matrigel) were injected into the upper mammary fat pad of ovariectomized female NSG (SCID) mice (Jackson labs). After 10 weeks, on day 0, large tumors (size range: 100-600 mm^3) were present. Mice were treated with the vehicle used to dissolve (−)-105, or (−)-105 at 40 mg/kd daily by subcutaneous injection. For bioluminescent imaging (BLI) of the tumors, the mice were anesthetized with isoflurane and Lucerfin, the luciferase substrate, was injected into the mice. Flux, the total member of light photons hitting the detector in one second was measured using an IVIS ([…]). Shown is the flux (in millions of units per second) for the entire area containing each tumor, or an equivalent area when the tumor is tiny or undetectable and the percent change in tumor size at each time a measurement was taken (day 0, day 3, week 1, week 2, week 3). Then treatment was stopped, and another measurement was taken two weeks letter. Note that tumors were also measured with calipers. […] After three days all the (−)-105 tumors has declined to undetectable using calipers.

The test system of the next data set is MCF-7 cells. The data set is described as follows: Alamar blue fluorescence 24-hour cell death assay, MCF-7. It counts as cell-based, human. Particulars: MCF7, 24 hour incubation, Alamar Blue (FIG. 4). As for the experimental part: ALAMAR BLUE/RAPTINAL ASSAY: Live cells maintain a reducing environment. The non-fluorescent cell permeable ingredient of Alamar Blue® (resazurin) is taken up by cells. In living cells, it is reduced to the fluorescent compound resorufin. Using a standard curve of cell number versus fluorescence the number of live cells in a test sample can be determined. At high concentrations raptinal kills 100% of cells. The vehicle in which the test compound is dissolved is not toxic. Thus, after subtracting the blank for medium alone, the fluorescence reading for vehicle corresponds to 100% viable cells and the signal for raptinal corresponds to 0% viable cells. […]
ALAMAR BLUE RAPTINAL ASSAYS: Cells were plated at 4,000-10,000 cells/well (96 well plate), usually in 50 μl of medium. […] After 24 hours Alamar Blue reagent was added and fluorescence in the wells was read (BMG PheraStar or Molecular Devices Spectra Max M3 Microplate Reader). % relative death was determined by setting the reading for raptinal-treated cells to 100% dead cells and the reading for vehicle-treated cells to 0% dead cells.
Preparative gram-scale chiral separation of (±)-1 yields enantiopure (R)-1 and (S)-1 with opposite optical rotations (Scheme 5). […] Values were obtained after 24-hour incubation utilizing Alamar blue fluorescence assay normalized to live and death controls (vehicle and raptinal treated). […]
(Alamar Blue is a resazurin reagent that responds to reducing activity.)

The subject of data set [2] is partially BHPI-resistant T47D clones 1, 3, 8, and 11. Nature of the data set: Growth of partially BHPI-resistant T47D clones (MTS). In kind it is cell-based, human. To be noted: 100 nM and 1 μM, 4 days. As for the experimental part:
ERα containing T47D human breast cancer cells able to survive in 1 μM BHPI were selected by clonal outgrowth. The effect of 100 nM and 1 μM BHPI and (−)-105 on growth of the (BHPI-sensitive) parental T47D cells and partially BHPI-resistant T47D clones 1, 3, 8, and 11 was evaluated. 4,000 cells/well were plated. Cell number was determined by MTS assay from a standard curve of absorbance versus cell number. […] Thus, in 4 days (−)-105 killed some, but not all, of the resistant cells.

Data set [3] deals with sp-XBP1 mRNA in T47D-luciferase cells. Nature of the data set: Induction of spliced XBP-1 mRNA (qRT-PCR). It counts as cell-based, human. Particulars: 100 nM. As for the experimental part:
ERα positive T47D-luciferase, human breast cancer cells, were maintained for the indicated times in vehicle (Ctl, Control), 100 nM BHPI or 100 nM (−)-105. At the indicated times RNA was isolated and levels of sp-XBP1 mRNA quantitated by qRT-PCR. (n=3±SEM). […] Increased sp-XBP1 mRNA is a widely used marker for unfolded protein response (UPR) activation.
A general note: Real-time PCR tracks product formation cycle by cycle.

[4] abbreviates: after 3 days of treatment, all 5 mice.

Several values for one entry are separate records, joined by “and”; a condition that tells them apart may be missing. Equal values may be shown once.

Regarding `O=C1Nc2c(C(F)(F)F)cccc2C1(c1ccc(O)cc1)c1ccc(OC(F)(F)F)cc1` (single isomer, unassigned; (-)) [(−)-105, 3-(4-hydroxyphenyl)-3-(4-(trifluoromethoxy)phenyl)-7-(trifluoromethyl)indolin-2-one], the figures for the “micro-tumor regrowth after stopping treatment” value in data set [1] (4 weeks after stopping treatment) and in data set [1] (two weeks after treatment was stopped) were “NO “MICRO-TUMOR” REGROWTH” and “the microtumors had not started growing again”, respectively. For the same molecule, the “tumor shrinkage (regression) by BLI, 4 of the 5 tumors” value in data set [1] (after 3 days of treatment, 4 of 5 tumors) is listed as “more than 99.9%”. Also, in data set [1] (setting [4]), the “tumor shrinkage (regression) by BLI, all five tumors” value was “more than 99%”. Besides, the “tumor size using calipers” value is reported as “undetectable” in data set [1] (setting [4]) and “undetectable” in data set [1] (within seven days, all 5 tumors). In data set [1] (after three weeks), the “tumor shrinkage by BLI, 3 of the remaining 4 mice” value is “more than 99.9%”. In data set [1] (after three weeks, one mouse), the “tumor change in one mouse (complete regression)” value is listed as −100%. Besides, the “Day 0 Flux” value in data set [1] (per mouse, day 0 (start of treatment, baseline)) was 2,130 millions of photons/sec and 277 millions of photons/sec and 72.6 millions of photons/sec and 1,880 millions of photons/sec and 1,650 millions of photons/sec. Besides, the “Day 14 % Change in Tumor Flux” value in data set [1] (per mouse, day 14 vs day 0) is listed as 99.66%. Also, the “health of the treated mice / toxicity” value in data set [1] (three-week treatment) is “No toxicity”. For the same molecule, in the data set on MCF-7 cells, the “ability to kill compared with BHPI and 01-15” value is “superior to BHPI and 01-15”. The “growth of the BHPI-resistant clones” value in data set [2] is listed as “completely blocked the growth of the resistant clones”. The “UPR activation, induction of sp-XBP1 mRNA” value in data set [3] is “much stronger UPR hyper-activator and inducer of sp-XBP1 than BHPI”.
